{"source": "patent US20110182909A1", "about": "“Glufosfamide combination therapy” (priority 2004, published 2011)", "key": {"[1]": {"system": "Ramos cells (Burkitt's lymphoma)", "test": "Alamar Blue cell proliferation assay (3 days)", "format": "cell-based", "settings": "for Cell proliferation as % control: 3 days; for IC50: single agent", "protocol": "Ramos cells lines (Burkitt's lymphoma) were obtained from the American Type Culture Collection (ATCC, Rockville, Md.). All cell lines were cultured in Dulbecco's modified Eagle's medium supplemented with 10% fetal calf serum, sodium pyruvate, nonessential amino acids, L-glutamine, vitamins, and antibiotics. Cells were maintained in a humidified incubator containing 5% CO2, 21% O2, at 37° C. All chemical reagents were purchased from Sigma Chemical Co. (St. Louis, Mo.) unless otherwise specified. Glufosfamide was provided directly by Threshold Pharmaceuticals and reconstituted in PBS freshly for each study.\nTo determine the effect of the combinations of the present invention on cell proliferation, the antiproliferative activity of these combinations was tested in a multi-well Alamar Blue based assay (at 3 days). Cell growth in the presence and absence of the test compound as tabulated in Table 1 was compared, as measured by a fluorescence plate reader at excitation 550 nm and emission 590 nm (see Biosource International Inc., Tech Application Notes, Use of Alainar Blue in the measurement of Cell Viability and Toxicity, Determining IC50). Ramos cells (Burkitt's lymphoma) (ATCC Catalog #CRL-1596), 3000 cells/well/180 μl) were seeded in a 96 well plate in RPMI medium (Invitrogen Corporation, Carlsbad, Calif.) and incubated overnight. After 24 hours, these plates were divided into Control group and 3 day treatment group.\nA test compound (Glufosfamide, Carboplatin, or Etoposide) was added to each plate in the treatment groups at a concentration as tabulated in Tables 1A-1D (in 200 μl of medium, respectively). The cells were incubated for 3 days, followed by staining with AlamarBlue. In the Control group, AlamarBlue was added to the plate at (i) day 0 and (ii) day 3 and measured to establish the control reading. In all the groups, the capacity of the cells to proliferate was measured 17 hours after addition of AlamarBlue using a fluorescence plate reader at excitation 550 nm and emission 590 nm. […] Dose dependent percent inhibition was calculated using Graphpad Prism® (GraphPad Software, Inc.). These values were then applied against the Combination Index (CI) method as described by Chou and Talalay (Chou, T. C. and Talalay, P., Quantitative analysis of dose-effect relationships: The combined effects of multiple drugs or enzyme inhibitors. Adv. Enz. Regul. 22:27-55, 1984) using CalcuSyn software (Biosoft).\nThe effect of the combinations of the present invention on cell proliferation was determined by comparing cell growth in the presence and absence of the test combinations as tabulated in the tables below according to the procedure described above."}, "[2]": {"settings": "in contrast to ifosfamide; cited from earlier work"}, "[3]": {"settings": "mesna given concomitantly with ifosfamide; cited from earlier work"}}, "note": "Like-named read-outs stand apart in the source and are kept apart here.", "data": [{"smiles": "N.N.O=C([O-])C1(C(=O)[O-])CCC1.[Pt+2]", "note": "[Carboplatin]", "values": [{"measurement": "Cell proliferation as % control", "setting": "[1]; Table 1A, Carboplatin 0.4 μM", "value": 97, "unit": "% control"}, {"measurement": "Cell proliferation as % control", "setting": "[1]; Table 1A, Carboplatin 3.7 μM", "value": 94, "unit": "% control"}, {"measurement": "Cell proliferation as % control", "setting": "[1]; Table 1A, Carboplatin 11 μM", "value": 68, "unit": "% control"}, {"measurement": "Cell proliferation as % control", "setting": "[1]; Table 1A, Carboplatin 33 μM", "value": 46, "unit": "% control"}, {"measurement": "Cell proliferation as % control", "setting": "[1]; Table 1A, Carboplatin 100 μM", "value": 0, "unit": "% control"}, {"measurement": "Cell proliferation as % control", "setting": "[1]; Table 1A, Carboplatin 300 μM", "value": 0, "unit": "% control"}, {"measurement": "IC50", "setting": "[1]; Table 1B, 3 days (from Table 1A), read-out: IC50", "value": 25, "unit": "µM"}, {"measurement": "Cell proliferation as % control", "setting": "[1]; Table 1C, Carboplatin 0.4 μM", "value": 98, "unit": "% control"}, {"measurement": "Cell proliferation as % control", "setting": "[1]; Table 1C, Carboplatin 3.7 μM", "value": 89, "unit": "% control"}, {"measurement": "Cell proliferation as % control", "setting": "[1]; Table 1C, Carboplatin 11 μM", "value": 74, "unit": "% control"}, {"measurement": "Cell proliferation as % control", "setting": "[1]; Table 1C, Carboplatin 33 μM", "value": 45, "unit": "% control"}, {"measurement": "Cell proliferation as % control", "setting": "[1]; Table 1C, Carboplatin 100 μM", "value": 0, "unit": "% control"}, {"measurement": "Cell proliferation as % control", "setting": "[1]; Table 1C, Carboplatin 300 μM", "value": 0, "unit": "% control"}, {"measurement": "IC50", "setting": "[1]; Table 1D, 3 days (from Table 1C), read-out: IC50", "value": 25, "unit": "µM"}]}, {"smiles": "COc1cc([C@@H]2c3cc4c(cc3[C@@H](O[C@@H]3O[C@@H]5CO[C@@H](C)O[C@H]5[C@H](O)[C@H]3O)[C@H]3COC(=O)[C@H]23)OCO4)cc(OC)c1O", "note": "[Etoposide]", "values": [{"measurement": "IC50", "setting": "[1]; Homo sapiens, 72 h, Table 1B, 3 days (from Table 1A), read-out: IC50", "value": "< 0.13", "unit": "µM"}, {"measurement": "IC50", "setting": "[1]; Homo sapiens, 72 h, Table 1D, 3 days (from Table 1C), read-out: IC50", "value": 0.076, "unit": "µM"}, {"measurement": "Cell proliferation as % control", "setting": "[1]; Table 1A, Etoposide 0.13 μM", "value": 37, "unit": "% control"}, {"measurement": "Cell proliferation as % control", "setting": "[1]; Table 1A, Etoposide 0.4 μM", "value": 26, "unit": "% control"}, {"measurement": "Cell proliferation as % control", "setting": "[1]; Table 1A, Etoposide 3.7 μM", "value": 3, "unit": "% control"}, {"measurement": "Cell proliferation as % control", "setting": "[1]; Table 1A, Etoposide 11 μM", "value": 0, "unit": "% control"}, {"measurement": "Cell proliferation as % control", "setting": "[1]; Table 1A, Etoposide 33 μM", "value": 0, "unit": "% control"}, {"measurement": "Cell proliferation as % control", "setting": "[1]; Table 1A, Etoposide 100 μM", "value": 0, "unit": "% control"}, {"measurement": "Cell proliferation as % control", "setting": "[1]; Table 1C, Etoposide 0.004 μM", "value": 97, "unit": "% control"}, {"measurement": "Cell proliferation as % control", "setting": "[1]; Table 1C, Etoposide 0.013 μM", "value": 91, "unit": "% control"}, {"measurement": "Cell proliferation as % control", "setting": "[1]; Table 1C, Etoposide 0.04 μM", "value": 62, "unit": "% control"}, {"measurement": "Cell proliferation as % control", "setting": "[1]; Table 1C, Etoposide 0.37 μM", "value": 35, "unit": "% control"}, {"measurement": "Cell proliferation as % control", "setting": "[1]; Table 1C, Etoposide 1.1 μM", "value": 14, "unit": "% control"}, {"measurement": "Cell proliferation as % control", "setting": "[1]; Table 1C, Etoposide 3.3 μM", "value": 0, "unit": "% control"}, {"measurement": "Cell proliferation as % control", "setting": "[1]; Table 1C, Etoposide 10 μM", "value": 0, "unit": "% control"}]}, {"smiles": "O=P(NCCCl)(NCCCl)OC1OC(CO)C(O)C(O)C1O", "note": "[Glufosfamide, α-D-glucosyl-ifosfamide mustard]", "values": [{"measurement": "production of chloroacetaldehyde", "setting": "[2]", "value": "produces less chloroacetaldehyde"}, {"measurement": "release of the toxic metabolite acrolein", "setting": "[2]", "value": "does not release the toxic metabolite acrolein"}, {"measurement": "IC50", "setting": "[1]; Homo sapiens, 72 h, Table 1B, 3 days (from Table 1A)", "value": 180, "unit": "µM"}, {"measurement": "IC50", "setting": "[1]; Homo sapiens, 72 h, Table 1D, 3 days (from Table 1C)", "value": 120, "unit": "µM"}, {"measurement": "Cell proliferation as % control", "setting": "[1]; Table 1A, Glufosfamide 0.7 μM", "value": 91, "unit": "% control"}, {"measurement": "Cell proliferation as % control", "setting": "[1]; Table 1A, Glufosfamide 2 μM", "value": 92, "unit": "% control"}, {"measurement": "Cell proliferation as % control", "setting": "[1]; Table 1A, Glufosfamide 6 μM", "value": 94, "unit": "% control"}, {"measurement": "Cell proliferation as % control", "setting": "[1]; Table 1A, Glufosfamide 19 μM", "value": 81, "unit": "% control"}, {"measurement": "Cell proliferation as % control", "setting": "[1]; Table 1A, Glufosfamide 56 μM", "value": 65, "unit": "% control"}, {"measurement": "Cell proliferation as % control", "setting": "[1]; Table 1A, Glufosfamide 167 μM", "value": 65, "unit": "% control"}, {"measurement": "Cell proliferation as % control", "setting": "[1]; Table 1A, Glufosfamide 500 μM", "value": 0, "unit": "% control"}, {"measurement": "Cell proliferation as % control", "setting": "[1]; Table 1C, Glufosfamide 9 μM", "value": 91, "unit": "% control"}, {"measurement": "Cell proliferation as % control", "setting": "[1]; Table 1C, Glufosfamide 19 μM", "value": 79, "unit": "% control"}, {"measurement": "Cell proliferation as % control", "setting": "[1]; Table 1C, Glufosfamide 37.5 μM", "value": 70, "unit": "% control"}, {"measurement": "Cell proliferation as % control", "setting": "[1]; Table 1C, Glufosfamide 75 μM", "value": 64, "unit": "% control"}, {"measurement": "Cell proliferation as % control", "setting": "[1]; Table 1C, Glufosfamide 150 μM", "value": 54, "unit": "% control"}, {"measurement": "Cell proliferation as % control", "setting": "[1]; Table 1C, Glufosfamide 300 μM", "value": 11, "unit": "% control"}, {"measurement": "Cell proliferation as % control", "setting": "[1]; Table 1C, Glufosfamide 600 μM", "value": 0, "unit": "% control"}]}, {"smiles": "O=S(=O)(O)CCS", "note": "[mesna, mercaptoethane sulfonate sodium]", "values": [{"measurement": "patients who do not respond to mesna and develop hematuria", "setting": "[3]", "value": "up to 6%"}]}]}
